Results published in US20080038228A1, “Method” (Danisco A/S, priority 2003, published 2008).
Entries after “also recorded” stand apart in the source; their conditions may differ.

How the values were obtained:
[1] = test system: cyclooxygenase 2 gene expression in Caco2 cells; assay: Caco-2 cell-based exposure test, Cox-2 gene expression (Experiment 1: selected metabolites and co-cultured bacterium); design: species or system human; conditions: 24 hour treatment, metabolites 5 mM, bacterium co-cultured in membrane insert
Description: (§1) The human colorectal carcinoma cell line Caco-2 was grown at 37° C. and 5% CO2 in serum-free Dulbeccos' MEM (Gibco) supplemented with 1 mM sodium pyruvate (Gibco) and 1× non-essential amino acids (Gibco) (DMEM). When grown without added bacteria, 20 Uml^−1 penicillin (Gibco), 20 μgml^−1 streptomycin (Gibco) and 0.5 μgml^−1 amphotericin (Gibco) were added to the medium. Bifidobacterium sp. 420 was grown anaerobically for 48 hours at 37° C. in a BIF medium consisting of 10 gl^−1 tryptic digest of casein peptone; 5 gl^−1 meat extract; 5 gl^−1 yeast extract; 10 gl^−1 glucose; 3 gl^−1 K2HPO4; 0.1% (volume/volume) Tween 80; 1% ascorbic acid and 0.05% cysteine-HCl; pH 6.8. 2 ml of logarithmic phase culture was centrifuged at 4000 rpm for 3 minutes. The cell pellet was suspended in 1.6 ml DMEM. The production of short chain organic acids by the bacterium was tested from fresh and conditioned bifidobacterium medium using gas chromatography.
(§2) To determine the effects of various treatments on the Cox-1/Cox-2 expression pattern, approximately 500 000 Caco-2 cells/well were seeded on 24-well cell culture plates. The cells were allowed to attach for 24 hours, after which the media were replaced by fresh media (total volume 1 ml/well) containing either no other added components than the ones described above (control treatments, with and without antibiotics) or antibiotic supplemented media with 5 mM sodium butyrate; 5 mM sodium propionate; 5 mM sodium acetate or 5 mM sodium lactate. In addition, wells were prepared that contained no antibiotics but a 0.2 μm anopore membrane tissue culture insert (Nunc, Denmark) into which 100 μl of the bacterial suspension described above was added.
(§3) After 24 hour exposure, media and culture inserts were discarded, cells were lysed and RNA was extracted using Qiagen's (Germany) RNEasy Mini Kit DNA was digested using the same manufacturer's RNase free DNase. Reverse transcription was performed using the High Capacity cDNA Archive Kit (Applied Biosystems, USA) according to the instructions provided by the manufacturer. Cox-1/Cox-2 expression patterns were determined by real-time quantitative TaqMan PCR (Holland et al., 1991 Proc. Natl. Acad. Sci. USA August 15; 88(16): 7276-80; and Livak and Scmittgen, 2001 Methods December; 25(4):402-8) using the default settings of an ABIPrism 7000 Sequence Detection instrument (Applied Biosystems).

[2] = test system: Cox-1/Cox-2 expression pattern in Caco-2 cells; assay: Cox-1/Cox-2 ratio and expression pattern in Caco-2 cells; assay type: cell-based, human; conditions: Experiment 1, Caco-2 cells, 24 hour exposure
Description: as §2, with “In addition, wells were prepared that contained no antibiotics but a 0.2 μm anopore membrane tissue culture insert (Nunc, Denmark) into which 100 μl of the bacterial suspension described above was added.” left out
as §3, with “Reverse transcription was performed using the High Capacity cDNA Archive Kit (Applied Biosystems, USA) according to the instructions provided by the manufacturer.” left out
Two bifidobacteria (Bifidobacterium sp. 420 and Bifidobacterium longum 913) were cultured as described in Experiment 1. […] Bacterial growth was stopped by chilling confluent cultures on ice, after which cell densities were determined by flow cytometry (FACS Calibur, Becton Dickinson). […]

Cox-2 expression = conditions: according to prior art; cited from earlier work
[3] = test system: indomethacin-induced gastrointestinal damage; assay: Rat model of indomethacin-induced gastrointestinal damage, damage area (Experiment 3); assay type: in vivo; conditions: male Wistar rats
Text: (§4) A previously described rat model was used to study indomethacin-induced gastrointestinal damage (see Meddings and Gibbons, Gastroenterology 1998; 114:83-92). Briefly, male Wistar rats were used and ten rats were included in each treatment group. Five different treatments were included: control group with no indomethacin treatment, indomethacin control group with no intervention treatment, indomethacin with 10^8 Bifidobacterium per rat, indomethacin with 10^10 Bifidobacterium per rat, and indomethacin with betaine (200 mg/rat). A single dose of indomethacin (10 mg/kg) was given p.o. preceded by a seven-day intervention with or without Bifidobacterium or betaine. In addition, a mixture of sucrose, lactulose, mannitol and sucralose was given p.o to measure gastrointestinal (GI) permeability. Urine samples were obtained at 16 hours after the challenge with indomethacin and prior to sacrificing the animals. Mucosa of the stomach and the intestine were examined by a pathologist and tissue samples of healthy-appearing mucosa for RNA isolation were collected from stomach, proximal and distal small intestine, caecum and proximal and distal colon. RNA was isolated and expression of cyclooxygenase-1 and -2 (COX-1 and COX-2, respectively) were determined by QPCR.

[4] = test system: indomethacin-induced gastrointestinal damage; assay: Combined live Bifidobacterium and betaine in indomethacin-challenged rats, damage area (Experiment 4); assay type: in vivo, rat; conditions: Experiment 4, indomethacin-challenged male Wistar rats; Bifidobacterium 10^10 and betaine 200 mg daily per animal; preliminary investigations
Description: Male Wistar rats as described previously in Experiment 3 above are split into the following treatment groups: a control, an indomethacin challenge group as a control, and treatment groups 3-5, which receive intervention treatment by live Bifidobacterium (10^10 daily dose per animal) and betaine (200 mg of daily dose per animal) either separately or in combination. Damage is determined from the sacrificed rats only.

[5] = test system: cyclooxygenase 1 gene expression in Caco2 cells; assay: Caco-2 cell-based exposure test, Cox-1 gene expression (Experiment 1: selected metabolites and co-cultured bacterium); design: species or system human; conditions: 24 hour treatment, metabolites 5 mM, bacterium co-cultured in membrane insert
Description: as §1, with “The production of short chain organic acids by the bacterium was tested from fresh and conditioned bifidobacterium medium using gas chromatography.” left out
as §3, with “Reverse transcription was performed using the High Capacity cDNA Archive Kit (Applied Biosystems, USA) according to the instructions provided by the manufacturer.” left out

[6] = test system: gastrointestinal (GI) permeability; assay: Gastrointestinal permeability, urine concentrations of marker sugars in indomethacin-challenged rats (Experiment 3); assay type: in vivo, rat; conditions: male Wistar rats, single dose 10 mg/kg p.o., urine at 16 hours
Text: as §4

| SMILES | Cox-2 gene expression level, fold change in relation to the control [1] | Cox-1/Cox-2 ratio / expression pattern (FIG. 1) [2] | effect on Cox-2 expression (Cox-2 expression) | Cox-1 gene expression level, fold change in relation to the control [5] | other results |
| --- | --- | --- | --- | --- | --- |
| CCCC(=O)[O-].[Na+] [butyrate, sodium butyrate] | 0.15 fold change | increase | lowering effect |  |  |
| C[N+](C)(C)CC(=O)[O-] [Betaine, trimethylglycine] |  |  |  |  | pathological damage area ([3]; seven-day intervention, then indomethacin 10 mg/kg p.o.): tendency to decrease; also recorded: somewhat reduced; damage area in the gastrointestinal tract [4]: tends to decrease |
| CC(O)C(=O)[O-].[Na+] (centres unmarked) [lactate, sodium lactate] | 0.74 fold change |  |  | 0.91 fold change |  |
| CCC(=O)[O-].[Na+] [propionate, sodium propionate] | 0.36 fold change | increase | lowering effect |  |  |
| COc1ccc2c(c1)c(CC(=O)O)c(C)n2C(=O)c1ccc(Cl)cc1 [Indomethacin, indomethacin] |  |  |  |  | gross pathological changes (ulceration) ([3]; single dose 10 mg/kg p.o.): induced ulceration mainly to fundic stomach, but also to pyloric stomach; urine concentrations of marker sugars after the challenge [6]: significant increase |
| CC(=O)[O-].[Na+] [acetate, sodium acetate] | 1.17 fold change |  |  | 2.08 fold change |  |
